# Results reported in paper PMC9510750, “Design, synthesis and biological evaluation of novel O-substituted tryptanthrin oxime derivatives as c-Jun N-terminal kinase inhibitors” (Frontiers in Pharmacology, 2022).
# Read-outs that look alike come from different tables or passages of the source.
# How the values were obtained:
# JNK2 = molecular target: T1, JNK2 (Homo sapiens, UniProt P45984); assay: KINOMEscan ATP site-dependent binding assay, JNK2; settings: mixture of E/Z isomers, read-out: Binding affinity JNK2 Kd
# T1 construct: purchased Eurofins Pharma Discovery (KINOMEscan platform)
# Method: (§1) Selected compounds were submitted for dissociation constant (Kd) determination using the KINOMEscan platform (Eurofins Pharma Discovery, San Diego, CA, United States), as described previously ([Karaman et al., 2008]). […] Primary screening at fixed concentrations of compounds was performed in duplicate.
# [1] = tested on: c-Jun (Ser63) phosphorylation in MonoMac-6 cells; assay: LPS-induced c-Jun (Ser63) phosphorylation, Western blotting; type: cell-based, human; settings: 30 min pretreatment, LPS 250 ng/ml 30 min, phospho-c-Jun/total c-Jun
# Method: MonoMac-6 monocytic cells (10^7 cells) were incubated with different concentrations of compound 1j (final DMSO concentration of 0.5%) for 30 min at 37°C and then treated with LPS (250 ng/ml) or buffer for another 30 min at 37°C. Cells were washed twice with ice-cold phosphate buffer solution (pH 7.4), and cell lysates were prepared using lysis buffer (Cell Signaling Technology, Danvers, MA, United States). Cell lysates were separated on ExpressPlus 10% PAGE Gels (GenScript, Piscataway, NJ, United States) using TRIS-MOPS running buffer and transferred to nitrocellulose membranes. The blots were blocked overnight at 4°C in TRIS buffer (pH 7.4) + 0.1% Tween-20 (TBST) + 2.5% bovine serum albumin and probed with antibodies against phospho-c-Jun (Ser63) (Cell Signaling Technology), followed by horseradish peroxidase-conjugated secondary antibody (Cell Signaling Technology), and the blots were developed using Super-Signal West Femto chemiluminescent substrate (Thermo Fisher Scientific) and visualized with a FluorChem FC2 imaging system (Alpha Innotech Corporation, San Leandro, CA, United States). For measurement of total c-Jun signal, we stripped and reprobed the same Western blots that were used for phospho-c-Jun blots. […] Quantitation of the luminescent signals were performed using AlphaView software.
# JNK1 = molecular target: T2, JNK1 (Homo sapiens, UniProt P45983); assay: KINOMEscan ATP site-dependent binding assay, JNK1; settings: mixture of E/Z isomers, read-out: Binding affinity JNK1 Kd
# T2 construct: purchased Eurofins Pharma Discovery (KINOMEscan platform)
# Method: as §1
# [2] = tested on: NF-κB/AP-1 transcriptional activity in THP-1Blue cells; assay: LPS-induced NF-κB/AP-1 alkaline phosphatase reporter assay in THP-1Blue cells; type: cell-based; settings: Homo sapiens; LPS 250 ng/ml, 24 h
# Method: (§2) All cells were cultured at 37°C in a humidified atmosphere containing 5% CO2. THP-1Blue cells obtained from InvivoGen (San Diego, CA, United States) were cultured in RPMI 1640 medium (Mediatech Inc., Herndon, VA, United States) supplemented with 10% (v/v) fetal bovine serum (FBS), 4.5 g/L glucose, 100 μg/ml streptomycin, 100 U/mL penicillin, 100 μg/ml phleomycin (Zeocin), and 10 μg/ml blasticidin S. Human monocyte-macrophage MonoMac-6 cells (Deutsche Sammlung von Mikroorganismen und Zellkulturen GmbH, Braunschweig, Germany) were grown in RPMI 1640 medium supplemented with 10% (v/v) FBS, 10 μg/ml bovine insulin, 100 μg/ml streptomycin, and 100 U/mL penicillin.
# Activation of AP-1/NF-κB was measured using an alkaline phosphatase reporter gene assay in THP1-Blue cells. Human monocytic THP-1Blue cells are stably transfected with a secreted embryonic alkaline phosphatase gene that is under the control of a promoter inducible by AP-1/NF-κB. THP-1Blue cells (2 × 10^5 cells/well) were pretreated with test compound or DMSO (1% final concentration) for 30 min, followed by addition of 250 ng/ml LPS (from Escherichia coli K-235; Sigma Chemical Co., St. Louis, MO, United States) for 24 h, and alkaline phosphatase activity was measured in cell supernatants using QUANTI-Blue mix (InvivoGen) with absorbance at 655 nm and compared with positive control samples (LPS). The concentrations of compound that caused 50% inhibition of the AP-1/NF-κB reporter activity (IC50) were calculated.
# [3] = tested on: IL-6 production in MonoMac-6 cells; assay: LPS-induced IL-6 production in MonoMac-6 cells (ELISA); type: cell-based; settings: Homo sapiens, MONO-MAC-6; LPS 250 ng/ml, 24 h
# Method: as §2
# (§3) Human IL-6 ELISA kit (BD Biosciences, San Jose, CA, United States) was used to confirm the inhibitory effect of selected compounds on IL-6 production. MonoMac-6 cells were plated in 96-well plates at a density of 2 × 10^5 cells/well in culture medium supplemented with 3% (v/v) endotoxin-free FBS. Cells were pretreated with test compound or DMSO (1% final concentration) for 30 min, followed by addition of 250 ng/ml LPS for 24 h. IC50 values for IL-6 production were calculated by plotting the percentage inhibition against the logarithm of inhibitor concentration (at least five points). Multiplex human cytokine ELISA kit from Anogen (Mississauga, ON, Canada) was used to evaluate various cytokines (IL-1α, IL-1β, IL-6, GM-CSF, MCP-1, IFNγ, and TNF) in the supernatants of MonoMac-6 cells.
# [4] = tested on: proinflammatory cytokine production in MonoMac-6 cells; assay: Multiplex human cytokine ELISA, LPS-stimulated MonoMac-6 cells; type: cell-based; settings: 10 μM, LPS 250 ng/ml 24 h
# Method: as §3
# JNK3 = molecular target: T3, JNK3 (Homo sapiens, UniProt P53779); assay: KINOMEscan ATP site-dependent binding assay, JNK3; settings: for Kd: KINOMEscan, mixture of E/Z isomers, read-out: Binding affinity JNK3 Kd
# T3 construct: purchased Eurofins Pharma Discovery (KINOMEscan platform)
# Method: as §1
# [5] = Solubility in DMSO for the binding affinity assay; type: physicochemical; settings: insufficiently soluble in DMSO for the binding affinity assay
# Description: TABLE 1 Binding affinity (Kd) of compounds 1a-o and their inhibitory effect on LPS-induced NF-κB/AP-1 transcriptional activity in THP-1Blue cells and IL-6 production in MonoMac-6 cells. | column: Binding affinity / JNK1
# [6] = tested on: NF-κB/AP-1 transcriptional activity in THP-1Blue cells; parameters: method as in Schepetkin et al., 2019; settings: LPS-stimulated; ref Schepetkin et al., 2019; cited from earlier work
# [7] = tested on: IL-6 production in MonoMac-6 cells; parameters: method as in Schepetkin et al., 2019; settings: LPS-stimulated; ref Schepetkin et al., 2019; cited from earlier work
# T3 sequence (P53779 whole entry): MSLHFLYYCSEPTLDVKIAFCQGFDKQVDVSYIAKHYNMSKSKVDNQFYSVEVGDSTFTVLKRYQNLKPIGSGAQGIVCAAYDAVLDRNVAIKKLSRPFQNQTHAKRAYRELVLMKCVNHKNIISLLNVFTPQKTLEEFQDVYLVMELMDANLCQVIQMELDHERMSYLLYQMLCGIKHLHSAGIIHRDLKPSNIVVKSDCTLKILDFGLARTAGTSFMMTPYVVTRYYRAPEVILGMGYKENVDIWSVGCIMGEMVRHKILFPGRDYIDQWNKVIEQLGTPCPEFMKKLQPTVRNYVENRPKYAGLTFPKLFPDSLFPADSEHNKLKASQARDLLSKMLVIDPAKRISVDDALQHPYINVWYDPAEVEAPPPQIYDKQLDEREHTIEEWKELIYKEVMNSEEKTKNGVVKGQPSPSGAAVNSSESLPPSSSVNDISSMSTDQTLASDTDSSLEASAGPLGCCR
# T2 sequence (P45983 whole entry): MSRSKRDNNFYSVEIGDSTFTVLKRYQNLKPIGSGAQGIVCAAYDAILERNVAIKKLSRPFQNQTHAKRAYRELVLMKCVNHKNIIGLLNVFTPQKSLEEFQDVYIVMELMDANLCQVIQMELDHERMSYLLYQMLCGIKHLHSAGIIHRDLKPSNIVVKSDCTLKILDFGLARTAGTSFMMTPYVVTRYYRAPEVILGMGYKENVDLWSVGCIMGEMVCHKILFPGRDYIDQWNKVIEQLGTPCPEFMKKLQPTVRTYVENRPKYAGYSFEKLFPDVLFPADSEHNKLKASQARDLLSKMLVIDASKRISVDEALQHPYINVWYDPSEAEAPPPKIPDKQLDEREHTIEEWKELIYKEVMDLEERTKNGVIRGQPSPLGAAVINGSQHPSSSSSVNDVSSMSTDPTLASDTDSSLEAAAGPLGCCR
# T1 sequence (P45984 whole entry): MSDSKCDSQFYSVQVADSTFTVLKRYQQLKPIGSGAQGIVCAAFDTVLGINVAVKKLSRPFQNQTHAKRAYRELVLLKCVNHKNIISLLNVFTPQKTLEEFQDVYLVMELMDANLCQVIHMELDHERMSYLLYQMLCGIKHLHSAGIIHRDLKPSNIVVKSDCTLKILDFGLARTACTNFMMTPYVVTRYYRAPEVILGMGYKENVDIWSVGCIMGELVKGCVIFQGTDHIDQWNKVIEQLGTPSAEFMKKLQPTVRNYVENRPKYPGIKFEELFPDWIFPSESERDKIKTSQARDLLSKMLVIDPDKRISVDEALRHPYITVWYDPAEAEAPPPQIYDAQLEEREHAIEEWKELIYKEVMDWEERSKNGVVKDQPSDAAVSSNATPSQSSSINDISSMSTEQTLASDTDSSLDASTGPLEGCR
smiles,measurement,setting,value
"CC(=O)ON=C1c2ccccc2-n2c1nc1ccccc1c2=O [Compound 1j, 6-(acetoxyimino)indolo[2,1-b]quinazolin-12(6H)-one]",Kd,JNK2,0.49 ± 0.01 µM
same,Inhibition of LPS-induced c-Jun (S63) phosphorylation,[1],dose-dependent inhibition
same,melting point,,262 °C
same,Kd,JNK1,0.34 ± 0.04 µM
same,IC50,[2],0.8 ± 0.2 µM
same,IC50,[3],1.7 ± 0.1 µM
same,Secretion of GM-CSF,[4]; vs DMSO-treated control,completely inhibited
same,Secretion of IL-1α,[4]; vs DMSO-treated control,completely inhibited
same,Secretion of IL-1β,[4]; vs DMSO-treated control,completely inhibited
same,Secretion of IL-6,[4]; vs DMSO-treated control,completely inhibited
same,Secretion of MCP-1,[4]; vs DMSO-treated control,completely inhibited
same,Secretion of TNF,[4]; vs DMSO-treated control,completely inhibited
same,Effect on IFN-γ production,[4]; low production of this cytokine after LPS,inconclusive
same,Kd,JNK3,0.18 ± 0.04 µM
"NN=C1c2ccccc2-n2c1nc1ccccc1c2=O [Compound 1m, 6-hydrazonoindolo[2,1-b]quinazolin-12(6H)-one]",melting point,,> 400 °C (dec.)
same,IC50,[2],≥ 50 µM
same,IC50,[3],≥ 50 µM
same,Solubility,[5],Poor solubility ^b
O=c1c2ccccc2nc2n1-c1ccccc1/C2=N\O [TRYP-Ox],IC50,[6],3.8 ± 1.1 µM
same,IC50,[7],3.2 ± 1.2 µM
"O=c1c2ccccc2nc2n1-c1ccccc1C2=NOCc1ccccc1 [Compound 1f, 6-((benzyloxy)imino)indolo[2,1-b]quinazolin-12(6H)-one]",melting point,,206 °C
same,IC50,[2],≥ 50 µM
same,IC50,[3],≥ 50 µM
same,Kd,JNK3,≥ 30 µM
"N#CCON=C1c2ccccc2-n2c1nc1ccccc1c2=O [Compound 1e, 2-(((12-oxoindolo[2,1-b]quinazolin-6(12H)-ylidene)amino)oxy)acetonitrile]",Kd,JNK2,17.5 ± 2.1 µM
same,melting point,,224 °C
same,Kd,JNK1,19.5 ± 3.5 µM
same,IC50,[2],≥ 50 µM
same,IC50,[3],≥ 50 µM
same,Kd,JNK3,1.5 ± 0.6 µM
same,JNK-3 selectivity over JNK-1,JNK3; ratio of binding affinities,> 10 fold
same,JNK-3 selectivity over JNK-2,JNK3; ratio of binding affinities,> 10 fold
"CON=C1c2ccccc2-n2c1nc1ccccc1c2=O [Compound 1a, 6-(methoxyimino)indolo[2,1-b]quinazolin-12(6H)-one]",Kd,JNK2,5.6 ± 0.4 µM
same,melting point,,218 °C
same,Kd,JNK1,3.1 ± 0.8 µM
same,IC50,[2],20.8 ± 5.3 µM
same,IC50,[3],23.5 ± 1.8 µM
same,Kd,JNK3,1.4 ± 0.2 µM
"O=c1c2ccccc2nc2n1-c1ccccc1C2=NNc1ccccc1 [Compound 1n, 6-(2-phenylhydrazono)indolo[2,1-b]quinazolin-12(6H)-one]",melting point,,223 °C
same,IC50,[2],≥ 50 µM
same,IC50,[3],≥ 50 µM
same,Solubility,[5],Poor solubility ^b
"CCON=C1c2ccccc2-n2c1nc1ccccc1c2=O [Compound 1b, 6-(ethoxyimino)indolo[2,1-b]quinazolin-12(6H)-one]",Kd,JNK2,5.4 ± 0.6 µM
same,melting point,,117 °C
same,Kd,JNK1,3.2 ± 1.2 µM
same,IC50,[2],≥ 50 µM
same,IC50,[3],≥ 50 µM
same,Kd,JNK3,1.2 ± 0.4 µM
"O=c1c2ccccc2nc2n1-c1ccccc1C2=NOCc1c(F)c(F)c(F)c(F)c1F [Compound 1g, 6-(((pentafluorophenyl)methoxy)imino)indolo[2,1-b]quinazolin-12(6H)-one]",melting point,,183 °C
same,IC50,[2],≥ 50 µM
same,IC50,[3],≥ 50 µM
same,Kd,JNK3,≥ 30 µM
"NC(=O)NN=C1c2ccccc2-n2c1nc1ccccc1c2=O [Compound 1o, 2-(12-oxoindolo[2,1-b]quinazolin-6(12H)-ylidene)hydrazinecarboxamide]",melting point,,266 °C
same,IC50,[2],3.3 ± 0.1 µM
same,IC50,[3],6.6 ± 1.2 µM
"O=c1c2ccccc2nc2n1-c1ccccc1C2=NOCc1ccc([N+](=O)[O-])cc1 [Compound 1h, 6-(((4-nitrobenzyl)oxy)imino)indolo[2,1-b]quinazolin-12(6H)-one]",melting point,,219 °C
same,IC50,[2],≥ 50 µM
same,IC50,[3],≥ 50 µM
same,Solubility,[5],Poor solubility ^b
"CC(C)(C)ON=C1c2ccccc2-n2c1nc1ccccc1c2=O [Compound 1d, 6-(tert-butoxyimino)indolo[2,1-b]quinazolin-12(6H)-one]",Kd,JNK2,12 ± 1.4 µM
same,melting point,,229 °C
same,Kd,JNK1,9.3 ± 0.5 µM
same,IC50,[2],≥ 50 µM
same,IC50,[3],≥ 50 µM
same,Kd,JNK3,2.3 ± 0.3 µM
"C=CCON=C1c2ccccc2-n2c1nc1ccccc1c2=O [Compound 1c, 6-((allyloxy)imino)indolo[2,1-b]quinazolin-12(6H)-one]",Kd,JNK2,4.1 ± 0.1 µM
same,melting point,,163 °C
same,Kd,JNK1,3.6 ± 0.7 µM
same,IC50,[2],18.9 ± 1.8 µM
same,IC50,[3],≥ 50 µM
same,Kd,JNK3,0.85 ± 0.01 µM
"O=c1c2ccccc2nc2n1-c1ccccc1C2=NOCc1ccccn1 [Compound 1i, 6-((pyridin-2-ylmethoxy)imino)indolo[2,1-b]quinazolin-12(6H)-one]",Kd,JNK2,3.9 ± 0.4 µM
same,melting point,,199 to 200 °C
same,Kd,JNK1,4 ± 0.9 µM
same,IC50,[2],≥ 50 µM
same,IC50,[3],≥ 50 µM
same,Kd,JNK3,1.5 ± 0.1 µM
